System: isolated rat primary islets
Assay: Insulin release from isolated primary rat islets
Type: cell-based
Protocol: Isolation of Rat Islets: Islets were isolated from 226-250 g male Sprague Dawley rats from Taconic. The animals were initially anesthetized with CO2 gas and euthanized by cervical dislocation. The pancreatic duct was injected with 15 to 30 ml of Collagenase P (Roche Diagnostics catalog #1 249 002) at 0.6 mg/ml in Hanks' Balanced Salt Solution (HBSS) (Gibco Catalog #14025-076) supplemented with BSA (Sigma, catalog #A 7409) to a final concentration of 0.1%. The pancreas was excised and placed into a 20 ml scintillation vial, incubated in a water bath at 37° C. for 16 to 18 minutes and then shaken briskly for at least 60 seconds. The digested tissue was poured into a 50 ml conical tube (1 per tube) containing cold Hank's Buffer supplemented with BSA (as above) and washed 7-10 times. […]
Measurement of Insulin Release: Insulin release measurements were carried out in Krebs-Ringer bicarbonate buffer (118.4 mmol/liter NaCl, 4.69 mmol/liter KCl, 1.2 mmol/liter MgSO4, 1.18 mmol/liter KH2PO4, 2.4 mmol/liter CaCl2, and 20 mmol/liter NaHCO3 (equilibrated with 95% O2 and 5% CO2, pH 7.4) supplemented with BSA to a final concentration of 0.1%). […] Insulin release in the supernatant was assessed using a commercially available ELISA kit (Mercodia-Cat. #10-1124-10) according to the manufacturer's protocol. The data were expressed as pg of insulin per number of cells. […]

Cc1cc(/C=N/NC(=O)C2CC2c2ccccc2)cc2cccnc12 (racemic) [Example 10, trans-N′-((8-Methylquinolin-6-yl)methylene)-2-phenylcyclopropanecarbohydrazide]
insulin secretion (3 mM glucose, compound up to 10 μM): insulin secretion is not observed | insulin secretion (12 mM glucose, compared to the DMSO control): significant dose-dependent increase in insulin secretion

From patent US20110033393A1, “Hydrazone Compounds and Their Use” (priority 2009, published 2011)
